{
  "source": "patent US12453708B2",
  "about": "“Aminonaphthoquinone compounds for treatment and/or prevention of fibrosis diseases” (CALGENT BIOTECHNOLOGY CO., LTD., priority 2015, dated 2025)",
  "tested_on": "BLM-induced lung fibrosis in mice",
  "experiment": "Bleomycin (BLM)-induced lung fibrosis mice model",
  "format": "in vivo, C57BL/6JNarl mice",
  "details": "BLM mice; for fibrosis score, Mean ± SEM: H&E histology day 39",
  "method": "FIGS. 8 (A) and (B) show the effect of L056 effect on fibrosis score of BLM-induced lung fibrosis in mice. C57BL/6 mice (8 weeks) were treated with bleomycin (BLM, 0.05 U/50 μl) or PBS (50 μl) by endotracheal administration. […] On day 39, the mice were sacrificed and, the histologic analysis of lung tissue was performed by hematoxylin-eosin (H&E) staining (original magnification, x100). […] (A), Histology fibrosis score plot; (B), H&E staining plot.\nFIG. 9 (A) to (D) show the inhibitory effects on pro-fibrogenic mediators, collagen, CTGF, fibronectin and […], respectively. (A), H&E staining plot for collagen; (B), H&E staining plot for CTGF; (C), H&E staining plot for fibronectin; (D), H&E staining plot for α-SMA.\nC57BL/6JNarl mice (8 weeks) were treated with bleomycin (BLM, 0.05 U/50 μl) or PBS (50 μl) by endotracheal administration. […] On day 39, the mice were sacrificed, and the histologic analysis of lung tissue was performed by hematoxylin-eosin (H&E) staining (original magnification, x100).",
  "key": {"[1]": {"details": "60 mg (oral, q.d., days 10 to 38)"}, "[2]": {"details": "200 mg (mg/kg/day, q.d., oral, days 10 to 38)"}},
  "data": [
    {"smiles": "COC(=O)c1ccc2c(c1)NC(=O)/C2=C(\\Nc1ccc(N(C)C(=O)CN2CCN(C)CC2)cc1)c1ccccc1", "note": "[OFEV, nintedanib, reference compound]", "values": [
      {"measurement": "Efficacy % (reduction of fibrosis score)", "setting": "[1]", "result": 41.66, "unit": "%"},
      {"measurement": "fibrosis score, Mean ± SEM", "setting": "[1]", "result": "3.62 ± 0.30"}
    ]},
    {"smiles": "Cc1ccc(=O)n(-c2ccccc2)c1", "note": "[Esbriet, pirfenidone, reference compound]", "values": [
      {"measurement": "Efficacy % (reduction of fibrosis score)", "setting": "[2]", "result": 34.08, "unit": "%"},
      {"measurement": "fibrosis score, Mean ± SEM", "setting": "[2]", "result": "3.91 ± 0.21"}
    ]}
  ]
}
